Measurements: patent US8192962B2, “Processes for detecting toxic substances” (Daikin Industries, Ltd., priority 2001, dated 2012)

Test system: Metabolism protein genes
Test: DNA chip mRNA expression in yeast, metabolism protein genes (Table 7)
Assay type: cell-based, Saccharomyces cerevisiae S288C
Procedure: Yeast (Saccharomyces cerevisiae S288C (α SUC2mal mel gap2 CUP1)) were incubated at 25° C. on YPD medium (yeast extract 1%, polypepton 2%, glucose 2%). One of toxic chemical substances was added to the cells at logarithmic growth phase, and the cells were further incubated for two hours. Cells were cultured without any chemical substance in the same condition, and were used as control. Concentrations of the chemical substances were defined to inhibit the growth of the yeast but not lead to death.
After completion of the incubation, the culture was centrifuged to collect the cells. To the cells, sodium acetate buffer (50 mM sodium acetate, 10 mM EDTA, 1% SDS) was added, and the mixture was shaken at 65° C. for five minutes, followed by returning to room temperature, and obtaining the supernatant, of which the procedures were repeated two times. To the supernatant, ½ amount of a solution of phenol/chloroform was added, and the mixture was centrifuged to give a supernatant, which was added with an equal amount of chloroform, and the mixture was centrifuged to give a supernatant. To the supernatant, an equal amount of isopropanol containing 0.3 M sodium acetate was added, and the mixture was allowed to stand at room temperature for 30 minutes, after which the mixture was centrifuged to give a sediment of the whole RNAs. Seventy % ethanol was added to the sediment, and the mixture was again centrifuged to give a sediment, which was then dried and dissolved in water. mRNA was isolated from the whole RNAs as followings. In view of the fact that a poly A chain is attached to the 3′ terminus of mRNA, a polynucleotide having a poly T structure which was immobilized on the surface of latex beads was used to trap the mRNA, and then the mRNA was washed and eluted with spine column (Oligotex-dT30<Super>mRNA Purification Kit, Takara). Reverse transcription of the mRNA was conducted with a reverse transcriptase (Super Script II Reverse Transcriptase; catalogue No. 18064-014, GibcoBRL) using fluorescence-labeled nucleotides to give cDNAs that were introduced with Cy3-dUTP or Cy5-dUTP during the reverse transcription.
The labeled cDNAs were dissolved in TE buffer (10mM Tris-HCl/1 mM EDTA, pH8.0), and the solution was dropped on the DNA chip containing the whole genes of yeast (DNA Chip Research Inc. Japan) so that the cDNAs were hybridized on the DNA chip at 65° C. for over 12 hours. The fluoresces intensity of the DNA chip was read with a scanner, and the ratio relative to the fluorescence intensity resulting from the absence of chemical substance was estimated as the following, which is shown in Tables 1 to 9: […]

## Oc1cc(Cl)c(Cl)cc1Cl [(6), 2,4,5-trichlorophenol]
Yeast gene YKL035W
  The level of expressed mRNA in the presence of chemical substance/The level of expressed mRNA in the absence of chemical substance: 1.2
Yeast gene YKL060C
  level of expressed mRNA in the presence/in the absence of chemical substance: 1.3
Yeast gene YKL091C
  The level of expressed mRNA in the presence of chemical substance/The level of expressed mRNA in the absence of chemical substance: 2.2
Yeast gene YKL104C
  The level of expressed mRNA in the presence of chemical substance/The level of expressed mRNA in the absence of chemical substance: 0.9
Yeast gene YKL148C
  level of expressed mRNA in the presence/in the absence of chemical substance: 0.5
Yeast gene YKL152C
  The level of expressed mRNA in the presence of chemical substance/The level of expressed mRNA in the absence of chemical substance: 1.6
Yeast gene YKL157W
  level of expressed mRNA in the presence/in the absence of chemical substance: 1.5
Yeast gene YKL213C
  The level of expressed mRNA in the presence of chemical substance/The level of expressed mRNA in the absence of chemical substance: 1.0
Yeast gene YKL215C
  The level of expressed mRNA in the presence of chemical substance/The level of expressed mRNA in the absence of chemical substance: 2.1
Yeast gene YKL218C
  The level of expressed mRNA in the presence of chemical substance/The level of expressed mRNA in the absence of chemical substance: 3.6
Yeast gene YKR034W
  level of expressed mRNA in the presence/in the absence of chemical substance: 0.9
Yeast gene YKR039W
  The level of expressed mRNA in the presence of chemical substance/The level of expressed mRNA in the absence of chemical substance: 2.8
Yeast gene YLL058W
  The level of expressed mRNA in the presence of chemical substance/The level of expressed mRNA in the absence of chemical substance: 1.4
Yeast gene YLR006C
  level of expressed mRNA in the presence/in the absence of chemical substance: 0.9
Yeast gene YLR044C
  level of expressed mRNA in the presence/in the absence of chemical substance: 1.5
Yeast gene YLR056W
  level of expressed mRNA in the presence/in the absence of chemical substance: 1.2
Yeast gene YLR058C
  level of expressed mRNA in the presence/in the absence of chemical substance: 0.9
Yeast gene YLR081W
  level of expressed mRNA in the presence/in the absence of chemical substance: 0.9
Yeast gene YLR089C
  level of expressed mRNA in the presence/in the absence of chemical substance: 1.5
Yeast gene YLR142W
  The level of expressed mRNA in the presence of chemical substance/The level of expressed mRNA in the absence of chemical substance: 3.1
Yeast gene YLR180W
  The level of expressed mRNA in the presence of chemical substance/The level of expressed mRNA in the absence of chemical substance: 1.2
Yeast gene YLR273C
  The level of expressed mRNA in the presence of chemical substance/The level of expressed mRNA in the absence of chemical substance: 1.2
Yeast gene YLR284C
  level of expressed mRNA in the presence/in the absence of chemical substance: 0.9
Yeast gene YLR299W
  The level of expressed mRNA in the presence of chemical substance/The level of expressed mRNA in the absence of chemical substance: 0.9
Yeast gene YLR300W
  The level of expressed mRNA in the presence of chemical substance/The level of expressed mRNA in the absence of chemical substance: 1.1
Yeast gene YLR304C
  level of expressed mRNA in the presence/in the absence of chemical substance: 1.9
Yeast gene YLR307W
  The level of expressed mRNA in the presence of chemical substance/The level of expressed mRNA in the absence of chemical substance: 1.2
Yeast gene YLR348C
  The level of expressed mRNA in the presence of chemical substance/The level of expressed mRNA in the absence of chemical substance: 1.9
Yeast gene YLR354C
  level of expressed mRNA in the presence/in the absence of chemical substance: 1.5
Yeast gene YLR372W
  level of expressed mRNA in the presence/in the absence of chemical substance: 0.5
Yeast gene YML022W
  level of expressed mRNA in the presence/in the absence of chemical substance: 0.8
Yeast gene YML054C
  The level of expressed mRNA in the presence of chemical substance/The level of expressed mRNA in the absence of chemical substance: 1.8
Yeast gene YML070W
  The level of expressed mRNA in the presence of chemical substance/The level of expressed mRNA in the absence of chemical substance: 2.2
Yeast gene YML100W
  The level of expressed mRNA in the presence of chemical substance/The level of expressed mRNA in the absence of chemical substance: 2.8
Yeast gene YML110C
  The level of expressed mRNA in the presence of chemical substance/The level of expressed mRNA in the absence of chemical substance: 2.6
Yeast gene YMR008C
  The level of expressed mRNA in the presence of chemical substance/The level of expressed mRNA in the absence of chemical substance: 1.7
Yeast gene YMR011W
  level of expressed mRNA in the presence/in the absence of chemical substance: 0.6
Yeast gene YMR015C
  level of expressed mRNA in the presence/in the absence of chemical substance: 1.3
Yeast gene YMR020W
  The level of expressed mRNA in the presence of chemical substance/The level of expressed mRNA in the absence of chemical substance: 1.6
Yeast gene YMR083W
  level of expressed mRNA in the presence/in the absence of chemical substance: 1.8
Yeast gene YMR105C
  The level of expressed mRNA in the presence of chemical substance/The level of expressed mRNA in the absence of chemical substance: 2.8
Yeast gene YMR189W
  The level of expressed mRNA in the presence of chemical substance/The level of expressed mRNA in the absence of chemical substance: 1.9
Yeast gene YMR205C
  level of expressed mRNA in the presence/in the absence of chemical substance: 1.2
Yeast gene YMR250W
  The level of expressed mRNA in the presence of chemical substance/The level of expressed mRNA in the absence of chemical substance: 4.5
Yeast gene YMR261C
  level of expressed mRNA in the presence/in the absence of chemical substance: 0.6
Yeast gene YMR271C
  The level of expressed mRNA in the presence of chemical substance/The level of expressed mRNA in the absence of chemical substance: 4.2
Yeast gene YMR272C
  The level of expressed mRNA in the presence of chemical substance/The level of expressed mRNA in the absence of chemical substance: 2.6
Yeast gene YMR296C
  The level of expressed mRNA in the presence of chemical substance/The level of expressed mRNA in the absence of chemical substance: 0.4
